According to patent US10617671B2, “Use of NK-1 receptor antagonist serlopitant in pruritus” (Menlo Therapeutics Inc., priority 2013, dated 2020):

Key:
NCNga mice = conditions: picrylchloride-induced dermatitis; cited from earlier work
[1] = Solubility of Compound 1 in solvents; assay type: physicochemical
Text: S-BTBA ((S)-1-[3,5-bis(trifluoromethyl)] phenylethanol)) (12) is reacted with trichloroacetonitrile (Sigma-Aldrich) in the presence of base 1,8-diazabicycloundec-7-ene (DBU) to produce imidate (13). HBF4 is used to catalyze the reaction of (11) with (13) to yield ether (14). Treatment with allylamine and bis-propylsulfonate cyclizes (14) to allylamine-protected pyrrolidine (15). Removal of the allyl protecting group with thiosalicylic acid and 1,4-bis(diphenylphosphino)butane (dppb), followed by […] (Pd2(dba)3) and isolation with acetic acid gives crystalline (16). Finally, (16) is reacted with 1,3-cyclopentanedione (Sigma-Aldrich) in isopropyl alcohol to give Compound 1. Compound 1 is a white to off-white powder.

[2] = Solubility test in Franz cell receptor solution; assay type: physicochemical
[3] = In vitro skin permeation, Franz diffusion cell; assay type: in vitro ADME; conditions: topical formulations B and C, LC-MS/MS, human skin, 37° C.
Experimental: In vitro skin permeation of serlopitant in topical formulations A-D was evaluated using a Franz diffusion cell. FIG. 2 illustrates a Franz diffusion cell. A Franz diffusion cell having a circular permeation area of 4.15 cm^2 and a receptor chamber volume of 19 mL was set up with a thermo-regulated outer water jacket to maintain the temperature at 37° C. The receptor chamber was filled with 19 mL 1×PBS (pH 7.5) containing 10% ethanol and 1% Tween® 80.
Human skin was pretreated to remove all subcutaneous fat and was cleaned with 70% ethanol before use. The skin was visually inspected to ensure that it was free of any surface irregularity or small holes and was equally divided into four pieces. The skin was then mounted onto the receptor chamber with the stratum corneum side facing up. About 100 mg of topical formulation A, B, C or D was applied to the skin (actual weight: A, 103.8 mg; B, 101.3 mg; C, 103.2 mg; and D, 103.8 mg), which was then covered with parafilm to avoid evaporation. […]
All samples were processed by solid-phase extraction (SPE) before LC-MS/MS analysis. […] Serlopitant concentrations in samples resulting from formulations A-D were determined by comparison to the standard. Serlopitant was not detected in samples resulting from topical formulations A and D, as expected. […] After an initial lag, serlopitant was detected by LC-MS/MS in the receptor chamber at 6 hours.

human NK-1 receptor = human NK-1 receptor (Homo sapiens, UniProt P25103); conditions: cited from earlier work
Chain of human NK-1 receptor (P25103 whole entry): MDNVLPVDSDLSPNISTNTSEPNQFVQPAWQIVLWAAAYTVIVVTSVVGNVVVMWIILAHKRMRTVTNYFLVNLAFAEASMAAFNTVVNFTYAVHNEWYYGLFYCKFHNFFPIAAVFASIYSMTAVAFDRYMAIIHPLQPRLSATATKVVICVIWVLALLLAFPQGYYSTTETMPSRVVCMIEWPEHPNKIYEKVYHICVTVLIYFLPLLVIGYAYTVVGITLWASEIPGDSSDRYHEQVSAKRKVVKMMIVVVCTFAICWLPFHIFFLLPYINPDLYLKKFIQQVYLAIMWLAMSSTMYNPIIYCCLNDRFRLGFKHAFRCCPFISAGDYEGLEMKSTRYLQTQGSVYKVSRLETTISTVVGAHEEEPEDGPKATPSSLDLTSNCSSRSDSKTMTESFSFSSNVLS

[4] = system: cloned human NK-2 and NK-3 receptors; conditions: CHO cells stably expressing the respective receptors; cited from earlier work
CYP-3A4 mRNA = conditions: three individual preparations of human hepatocytes; cited from earlier work
patients with OAB = conditions: cited from earlier work
[5] = system: patients with Sézary syndrome; conditions: oral, 80 mg daily, three patients with Sézary syndrome; cited from earlier work
[6] = system: patients with chronic pruritus; design: patients with considerable reduction in itch intensity: unit not given here; conditions: 80 mg daily for 3 to 13 days, cited from earlier work
[7] = system: patients suffering from chronic pruritus; conditions: single topical dose, 5% in a lipophilic vehicle; cited from earlier work
CYP3A4 = CYP3A4 (Homo sapiens, UniProt P08684); conditions: cited from earlier work
Chain of CYP3A4 (P08684 whole entry): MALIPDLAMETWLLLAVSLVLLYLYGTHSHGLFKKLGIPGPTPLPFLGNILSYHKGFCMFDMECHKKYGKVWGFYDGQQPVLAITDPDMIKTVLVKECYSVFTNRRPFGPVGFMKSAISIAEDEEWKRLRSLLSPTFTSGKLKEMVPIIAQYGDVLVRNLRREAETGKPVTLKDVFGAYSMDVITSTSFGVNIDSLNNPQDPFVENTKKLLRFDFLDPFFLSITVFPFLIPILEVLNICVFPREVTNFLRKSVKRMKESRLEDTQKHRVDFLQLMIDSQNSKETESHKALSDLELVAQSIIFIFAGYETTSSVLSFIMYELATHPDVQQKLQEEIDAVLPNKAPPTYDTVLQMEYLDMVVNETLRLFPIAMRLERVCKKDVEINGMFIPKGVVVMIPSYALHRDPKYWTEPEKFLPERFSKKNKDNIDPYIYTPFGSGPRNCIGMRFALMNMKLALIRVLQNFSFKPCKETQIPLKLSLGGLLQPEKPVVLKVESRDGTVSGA

CYP2C9 = CYP2C9 (Homo sapiens, UniProt P11712); conditions: cited from earlier work
Chain of CYP2C9 (P11712 whole entry): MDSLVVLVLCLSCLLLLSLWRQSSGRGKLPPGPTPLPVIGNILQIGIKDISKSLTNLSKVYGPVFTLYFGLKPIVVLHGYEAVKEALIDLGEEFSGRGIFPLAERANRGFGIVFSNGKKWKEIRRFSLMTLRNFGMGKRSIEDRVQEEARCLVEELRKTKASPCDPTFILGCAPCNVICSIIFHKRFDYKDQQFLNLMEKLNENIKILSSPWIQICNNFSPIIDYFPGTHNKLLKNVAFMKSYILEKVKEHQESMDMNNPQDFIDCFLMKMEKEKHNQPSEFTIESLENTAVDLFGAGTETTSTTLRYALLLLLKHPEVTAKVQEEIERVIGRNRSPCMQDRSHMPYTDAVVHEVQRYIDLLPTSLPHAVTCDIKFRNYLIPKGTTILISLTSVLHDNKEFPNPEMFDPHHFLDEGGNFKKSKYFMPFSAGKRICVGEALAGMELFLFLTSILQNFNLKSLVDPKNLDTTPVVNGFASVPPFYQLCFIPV

[8] = itch; cited from earlier work
[9] = system: patients with liver and kidney disease; conditions: cited from earlier work

In the case of CN(CCc1cc(C(F)(F)F)cc(C(F)(F)F)c1)C(=O)[C@H](c1ccccc1)N1CCN(CC2CC2)CC1 [BIIF 1149 CL], the scratching behavior (NCNga mice) is given as “inhibited scratching behavior”.
In the case of C[C@@H](O[C@H]1CC[C@@H]2CN(C3=CC(=O)CC3)C[C@H]2[C@@H]1c1ccc(F)cc1)c1cc(C(F)(F)F)cc(C(F)(F)F)c1 [Compound 1, 3-[(3aR,4R,5S,7aS)-5-[(1R)-1-[3,5-bis(trifluoromethyl)phenyl]ethoxy]-4-(4-fluorophenyl)-1,3,3a,4,5,6,7,7a-octahydroisoindol-2-yl]cyclopent-2-en-1-one], the solubility ([1]; acetonitrile) is reported as “sparingly soluble”, the solubility ([1]; ethanol) is reported as “soluble” and the solubility ([1]; ethyl acetate) is reported as “sparingly soluble”. For the same compound, the solubility ([1]; isopropyl acetate) was “slightly soluble”, the solubility ([1]; isopropyl alcohol) was “sparingly soluble” and the solubility ([1]; methanol) was “freely soluble”. For the same compound, the solubility ([1]; water) was “insoluble”, the “solubility in receptor solution” value ([2]; 0.5, 5 and 50 ug/mL in 1xPBS (pH 7.5) with 10% ethanol and 1% Tween 80, 1 hour at 37° C.) was “remained soluble” and the “solubility change if Tween 80 was not used” value ([2]; 1xPBS (pH 7.5), 37° C.) was “decreased significantly”. For the same compound, the “solubility change if ethanol was not used” value ([2]; 1xPBS (pH 7.5), 37° C.) was “decreased slightly”, the “time at which serlopitant was detected in the receptor chamber after initial lag” value [3] was 6 h and the IC50 (human NK-1 receptor; read-out: IC50, displacement of substance P binding) was 0.061 nM. The Kd (human NK-1 receptor; read-out: Kd, binding to the human NK-1 receptor) was 0.046 nM, the “selectivity for NK-1 over NK-2 and NK-3 receptors” value [4] was > 39,000 fold and the “induction of CYP-3A4 mRNA” value (CYP-3A4 mRNA) was “did not significantly induce”. The “number of daily micturitions compared with placebo” value (patients with OAB; 0.25 and 4 mg daily) was “significantly reduced”, the “adverse experience of dry mouth” value (patients with OAB) was “not associated” and the “dose response relationship with micturition frequency” value (patients with OAB) was “did not show a dose response relationship”. The “drug-related serious adverse experiences” value (patients with OAB) was “no drug-related serious adverse experiences”, the “secondary efficacy end points: urinary urgency, urge incontinence and total incontinence” value (patients with OAB) was “did not significantly influence” and the tolerability (patients with OAB) was “generally well tolerated”.
For C[C@@H](O[C@H]1OCCN(Cc2n[nH]c(=O)[nH]2)[C@H]1c1ccc(F)cc1)c1cc(C(F)(F)F)cc(C(F)(F)F)c1 [aprepitant], the treatment of pruritus [5] is listed as “had utility in treating pruritus”, the “effect on chronic pruritus” value ([6]; atopic diathesis, prurigo nodularis) is listed as “significantly decreased chronic pruritus” and the “patients with considerable reduction in itch intensity” value ([6]; twenty patients) is listed as “Eighty”. The “absorption into the skin” value [7] was “absorbed into the skin”, the “effect on patients' itch” value [7] was “not alleviated” and the “inhibition and induction of CYP3A4” value (CYP3A4) was “moderate inhibitor as well as an inducer”. For the same compound, the “inhibition and induction of CYP2C9” value (CYP2C9) was “moderate inhibitor as well as an inducer”.
In the case of NCC1(CC(=O)O)CCCCC1 [gabapentin], the onset of action [8] is given as 5-6 weeks.
In the case of C=C1CC[C@@]2(O)[C@H]3Cc4ccc(O)c5c4[C@@]2(CCN3CC2CC2)[C@H]1O5 [nalmefene], the “effect on pruritus symptoms” value [9] is given as “decreased pruritus symptoms” and the side effects [9] is given as “significant central nervous and gastrointestinal side effects occurred”.
In the case of C=CCN1CC[C@]23c4c5ccc(O)c4O[C@H]2C(=O)CC[C@@]3(O)[C@H]1C5 [naloxone], the “effect on pruritus symptoms” value [9] is given as “decreased pruritus symptoms” and the side effects [9] is given as “significant central nervous and gastrointestinal side effects occurred”.
For O=C1CC[C@@]2(O)[C@H]3Cc4ccc(O)c5c4[C@@]2(CCN3CC2CC2)[C@H]1O5 [naltrexone], the “effect on pruritus symptoms” value [9] is given as “decreased pruritus symptoms” and the side effects [9] is given as “significant central nervous and gastrointestinal side effects occurred”.
In the case of Cc1ccc(O)c([C@H](CCN(C(C)C)C(C)C)c2ccccc2)c1 [tolterodine, reference compound], the “adverse experience of dry mouth” value (patients with OAB) is listed as “common”, the “efficacy compared with placebo” value (patients with OAB) is listed as “statistically significantly more effective” and the “efficacy compared with serlopitant at all efficacy end points” value (patients with OAB) is listed as “numerically more effective”.
